# Measured values: PMC12057336 (Antimicrobial Agents and Chemotherapy, 2025)
# Where two headings read alike, the source gives them in different places.
# Experiment: Tissue distribution after i.g. or i.v. linezolid in control, CCl4-induced and 5/6 Nx rats
# Type: in vivo, rat
# Conditions: rat
# Description: These two groups were further divided into the following three subgroups (n = 4): control rats, CCl4-induced rats, and 5/6 Nx rats. […] The rats were euthanized immediately after blood sampling. The brain, heart, lungs, liver, kidneys, and small intestine were collected. The collected tissues were washed and homogenized in normal saline (three-fold volume of each sample weight) using a multi-sample tissue grinder (Tissuelyser-48L; Shanghai Jingxin Industrial Development Co. Ltd., Shanghai, China). After centrifugation of the homogenate samples at 12,000 × g for 10 min at 4°C, the supernatants were stored at −80°C.
# The flow rate was 1.0 mL/min.
# Then, 5 µL of the supernatant was analyzed.
# [1] = brain, iv, 25 mg/kg, i.v. 25 mg/kg linezolid, 5/6 Nx rats, read-out: Tissue/plasma concentration ratio, Brain
# [2] = brain, iv, 25 mg/kg, i.v. 25 mg/kg linezolid, CCl4-induced rats, read-out: Tissue/plasma concentration ratio, Brain
# [3] = brain, iv, 25 mg/kg, i.v. 25 mg/kg linezolid, control rats, read-out: Tissue/plasma concentration ratio, Brain
# [4] = brain, oral, 63 mg/kg, i.g. 63 mg/kg linezolid, 5/6 Nx rats, read-out: Tissue/plasma concentration ratio, Brain
# [5] = brain, oral, 63 mg/kg, i.g. 63 mg/kg linezolid, CCl4-induced rats, read-out: Tissue/plasma concentration ratio, Brain
# [6] = brain, oral, 63 mg/kg, i.g. 63 mg/kg linezolid, control rats, read-out: Tissue/plasma concentration ratio, Brain
# [7] = heart, iv, 25 mg/kg, i.v. 25 mg/kg linezolid, 5/6 Nx rats, read-out: Tissue/plasma concentration ratio, Heart
# [8] = heart, iv, 25 mg/kg, i.v. 25 mg/kg linezolid, CCl4-induced rats, read-out: Tissue/plasma concentration ratio, Heart
# [9] = heart, iv, 25 mg/kg, i.v. 25 mg/kg linezolid, control rats, read-out: Tissue/plasma concentration ratio, Heart
# [10] = heart, oral, 63 mg/kg, i.g. 63 mg/kg linezolid, CCl4-induced rats, read-out: Tissue/plasma concentration ratio, Heart
# [11] = heart, oral, 63 mg/kg, i.g. 63 mg/kg linezolid, control rats, read-out: Tissue/plasma concentration ratio, Heart
# [12] = heart, oral, 63 mg/kg, i.g. 63 mg/kg linezolid, 5/6 Nx rats, read-out: Tissue/plasma concentration ratio, Heart
# [13] = kidney, iv, 25 mg/kg, i.v. 25 mg/kg linezolid, 5/6 Nx rats, read-out: Tissue/plasma concentration ratio, Kidney
# [14] = kidney, iv, 25 mg/kg, i.v. 25 mg/kg linezolid, control rats, read-out: Tissue/plasma concentration ratio, Kidney
# [15] = kidney, oral, 63 mg/kg, i.g. 63 mg/kg linezolid, CCl4-induced rats, read-out: Tissue/plasma concentration ratio, Kidney
# [16] = kidney, oral, 63 mg/kg, i.g. 63 mg/kg linezolid, 5/6 Nx rats, read-out: Tissue/plasma concentration ratio, Kidney
# [17] = kidney, oral, 63 mg/kg, i.g. 63 mg/kg linezolid, control rats, read-out: Tissue/plasma concentration ratio, Kidney
# [18] = liver (homogenate) relative to plasma, iv, 25 mg/kg, i.v. 25 mg/kg linezolid, 5/6 Nx rats, read-out: Tissue/plasma concentration ratio, Liver
# [19] = liver (homogenate) relative to plasma, iv, 25 mg/kg, i.v. 25 mg/kg linezolid, control rats, read-out: Tissue/plasma concentration ratio, Liver
# [20] = liver, oral, 63 mg/kg, i.g. 63 mg/kg linezolid, 5/6 Nx rats, read-out: Tissue/plasma concentration ratio, Liver
smiles,measurement,setting,value
CC(=O)NC[C@H]1CN(c2ccc(N3CCOCC3)c(F)c2)C(=O)O1 [Linezolid],Kp at 0.5 h,[1],0.12 ± 0.04
same,Kp at 0.5 h,[2],0.16 ± 0.12
same,Kp at 0.5 h,[3],0.11 ± 0.02
same,Kp at 1 h,[1],0.15 ± 0.01
same,Kp at 1 h,[2],0.12 ± 0.03
same,Kp at 1 h,[3],0.12 ± 0.02
same,Kp at 4 h,[1],0.13 ± 0.04
same,Kp at 4 h,[2],0.08 ± 0.01
same,Kp at 0.5 h,[4],0.17 ± 0.06
same,Kp at 0.5 h,[5],0.1 ± 0.01
same,Kp at 0.5 h,[6],0.15 ± 0.02
same,Kp at 1 h,[4],0.16 ± 0.03
same,Kp at 1 h,[5],0.09 ± 0.02
same,Kp at 1 h,[6],0.03 ± 0.002
same,Kp at 4 h,[4],0.18 ± 0.06
same,Kp at 4 h,[5],0.07 ± 0.04
same,Kp at 4 h,[6],0.06 ± 0.03
same,Kp at 0.5 h,[7],0.85 ± 0.04
same,Kp at 0.5 h,[8],0.63 ± 0.05
same,Kp at 0.5 h,[9],0.5 ± 0.09
same,Kp at 1 h,[7],0.91 ± 0.04
same,Kp at 1 h,[8],0.67 ± 0.05
same,Kp at 1 h,[9],0.4 ± 0.07
same,Kp at 4 h,[7],0.75 ± 0.13
same,Kp at 4 h,[8],0.67 ± 0.09
same,Kp at 4 h,[9],0.13 ± 0.1
same,Kp at 0.5 h,[10],0.64 ± 0.14
same,Kp at 0.5 h,[11],0.68 ± 0.06
same,Kp at 1 h,[12],0.88 ± 0.12
same,Kp at 1 h,[10],0.54 ± 0.18
same,Kp at 1 h,[11],0.24 ± 0.06
same,Kp at 4 h,[12],0.96 ± 0.47
same,Kp at 4 h,[10],0.61 ± 0.03
same,Kp at 4 h,[11],0.47 ± 0.15
same,Kp at 4 h,"kidney (homogenate) relative to plasma, iv, 25 mg/kg, i.v. 25 mg/kg linezolid, 5/6 Nx rats, read-out: Tissue/plasma concentration ratio, Kidney",1 ± 0.23
same,Kp at 0.5 h,[13],0.97 ± 0.12
same,Kp at 0.5 h,"kidney, iv, 25 mg/kg, i.v. 25 mg/kg linezolid, CCl4-induced rats, read-out: Tissue/plasma concentration ratio, Kidney",1.28 ± 0.56
same,Kp at 0.5 h,[14],0.64 ± 0.36
same,Kp at 1 h,[13],0.92 ± 0.18
same,Kp at 1 h,[14],0.62 ± 0.52
same,Kp at 4 h,[14],0.84 ± 0.14
same,Kp at 0.5 h,[15],0.85 ± 0.16
same,Kp at 1 h,[16],0.94 ± 0.18
same,Kp at 1 h,[15],1.18 ± 0.22
same,Kp at 1 h,[17],0.42 ± 0.06
same,Kp at 4 h,[16],0.97 ± 0.25
same,Kp at 4 h,[15],1.11 ± 0.17
same,Kp at 4 h,[17],0.75 ± 0.15
same,Kp at 0.5 h,[18],1.24 ± 0.21
same,Kp at 0.5 h,"liver (homogenate) relative to plasma, iv, 25 mg/kg, i.v. 25 mg/kg linezolid, CCl4-induced rats, read-out: Tissue/plasma concentration ratio, Liver",1.32 ± 0.36
same,Kp at 0.5 h,[19],1.22 ± 0.46
same,Kp at 1 h,[18],1.11 ± 0.34
same,Kp at 1 h,[19],0.6 ± 0.38
same,Kp at 4 h,"liver, iv, 25 mg/kg, i.v. 25 mg/kg linezolid, 5/6 Nx rats, read-out: Tissue/plasma concentration ratio, Liver",1.39 ± 0.4
same,Kp at 4 h,"liver, iv, 25 mg/kg, i.v. 25 mg/kg linezolid, CCl4-induced rats, read-out: Tissue/plasma concentration ratio, Liver",1.19 ± 0.85
same,Kp at 4 h,"liver, iv, 25 mg/kg, i.v. 25 mg/kg linezolid, control rats, read-out: Tissue/plasma concentration ratio, Liver",1.3 ± 0.36
same,Kp at 0.5 h,[20],1.25 ± 0.6
same,Kp at 0.5 h,"liver, oral, 63 mg/kg, i.g. 63 mg/kg linezolid, CCl4-induced rats, read-out: Tissue/plasma concentration ratio, Liver",1.06 ± 0.44
same,Kp at 0.5 h,"liver, oral, 63 mg/kg, i.g. 63 mg/kg linezolid, control rats, read-out: Tissue/plasma concentration ratio, Liver",1.64 ± 0.75
same,Kp at 1 h,[20],1.37 ± 0.41
